# Target: MASP-2 CCP2-SP (Homo sapiens (Human), UniProt O00187)
# Test: MASP-2 co-crystallization, X-ray crystallography and structure analysis (H-bonds, van der Waals contacts);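 as to Ligand-pharmacophore element distance, pharmacophore element C2: distance from averaged pharmacophore element to bound ligand; missing value means element absent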;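 as to Ligand-pharmacophore element distance, pharmacophore element C3: distance from averaged pharmacophore element to bound ligand; missing value means element absent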;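 as to Ligand-pharmacophore element distance, pharmacophore element C4: distance from averaged pharmacophore element to bound ligand; missing value means element absent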;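 as to Ligand-pharmacophore element distance, pharmacophore element C5: distance from averaged pharmacophore element to bound ligand; missing value means element absent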
# Parameters: van der Waals contact distance, MASP-2 HIS 483 atom CD2 / van der Waals contact distance, MASP-2 HIS 483 atom NE2 / van der Waals contact distance, SER 654 C to compound atom / van der Waals contact distance, SER 654 O to compound atom / van der Waals contact distance, TRP 655 C to compound atom / van der Waals contact distance, MASP-2 GLY 528 atom CA / van der Waals contact distance TRP 655 atom CZ3 / van der Waals contact distance TRP 655 atom N / van der Waals contact distance TRP 655 atom CE3 / van der Waals contact distance GLY 656 atom C / van der Waals contact distance GLY 656 atom CA / van der Waals contact distance GLY 656 atom O / van der Waals contact distance, MASP-2 TYR 607 atom CD1 / van der Waals contact distance, MASP-2 PRO 606 atom O / d(C3,CA1) / d(CA1,N1)2 / d(H4,O1) / d(H4,O2) / d(O1,O2) / d(CA1,O2) / d(CA6,O1) / d(CA6,O2) / d(CA1,C5) / d(O2,H3) / d(N2,C2) / d(CA5,N2) / d(N2,C4) / d(N2,C6) / d(N2,CA3) / d(N2,O3) / d(O4,H2): unit not given beside the values
# Details: for Ligand-pharmacophore element distance, pharmacophore element C2 / Ligand-pharmacophore element distance, pharmacophore element C3 / Ligand-pharmacophore element distance, pharmacophore element C4 / Ligand-pharmacophore element distance, pharmacophore element C5 / Ligand-pharmacophore element distance, pharmacophore element C6 / Ligand-pharmacophore element distance, pharmacophore element C7 / Ligand-pharmacophore element distance, pharmacophore element CA1 / Ligand-pharmacophore element distance, pharmacophore element CA2 / Ligand-pharmacophore element distance, pharmacophore element CA3 / Ligand-pharmacophore element distance, pharmacophore element CA4 / Ligand-pharmacophore element distance, pharmacophore element CA5 / Ligand-pharmacophore element distance, pharmacophore element CA6: Table A4-1; for Pharmacophore protein distance to MET_658 (first MET_658 column) / Pharmacophore protein distance to MET_658 (second MET_658 column) / Pharmacophore protein distance to GLY_528 / Pharmacophore protein distance to PHE_529 / Pharmacophore protein distance to PRO_608 / Pharmacophore protein distance to SER_611 / Pharmacophore protein distance to TRP_655: Table A8-6, nearest protein atom in cell to the left; for Pharmacophore protein distance to MET_658 (first MET_658 column): 6th residue column; for Pharmacophore protein distance to MET_658 (second MET_658 column): 9th residue column; for Pharmacophore protein distance to TRP_655: pharmacophore elements C6, CA3, O3, H1
# Source text: This example illustrates the preparation of recombinant MASP-2 protein, based on UniProt O00187, human mannan-binding lectin serine protease 2. Expression constructs for human MASP-2 CCP2-SP and CCP2-SP-6HIS were generated for recombinant expression in E. coli cells.
# Typically, crystallization hits were obtained by screening against […] 96-well crystallization reagent kits (GRAS6, GRAS2, Hampton Research; MORPHEUS, Molecular Dimensions; Wizard 1&2 Cryo, Rigaku Reagents) and crystal growth was inspected by optical microscopy. Crystals were used directly or further optimized for X-ray diffraction. Crystals were captured with cryogenic loops and dipped into liquid nitrogen directly or cryoprotected with a 20% glycerol in crystallization formulation before flash-cooling in liquid nitrogen.
# Thereafter crystals are transferred once or twice for soaking within the crystallization solution containing the MASP-2 inhibitor.
# Crystals were diffracted with synchrotron X-rays of […] and X-ray diffraction datasets were collected at beamlines SSRL BL9-2, BL14-1, BL12-2 as well as ALS sector 5 using Dectris Pilatus and Eiger detectors. Structures were determined by molecular replacement using portions of the structure 1Q3X as search models and partially refined with Buster 2.10.2 or Refmac 5.8. […] When multiple ligand poses were observed, for instance arising from multiple molecules in the asymmetric unit or refined dual poses within the same molecule, only one pose was selected and analyzed.
# LigPlot+ calls these ‘nonbonded contacts’ or ‘hydrophobic contacts’. Despite the name, there are atom pairings that include possible H-bonds. Thus, in some instances, the Table A2 also contains H-bond interactions.
# [1] = Table A5-1 pharmacophore: distance between elements, S2/S1 region
# [2] = Table A5-2 pharmacophore distance, S3/S4 region
# [3] = Table A7-1, between pharmacophore elements of the bound compound
# [4] = Table A7-2, between pharmacophore elements of the bound compound
# Chain of MASP-2 CCP2-SP (O00187 445-686): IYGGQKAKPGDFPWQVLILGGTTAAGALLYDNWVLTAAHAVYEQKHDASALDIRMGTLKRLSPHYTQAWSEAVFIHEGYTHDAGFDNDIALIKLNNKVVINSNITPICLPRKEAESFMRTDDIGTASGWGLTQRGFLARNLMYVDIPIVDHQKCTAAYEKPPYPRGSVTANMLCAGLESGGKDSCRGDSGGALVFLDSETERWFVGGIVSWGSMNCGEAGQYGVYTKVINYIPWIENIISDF
# Chain of MASP-2 CCP2-SP (O00187 364-432 partner): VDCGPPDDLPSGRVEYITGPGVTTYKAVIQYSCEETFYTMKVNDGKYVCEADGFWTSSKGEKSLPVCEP
smiles,measurement,setting,value
C[C@H](NC(=O)[C@H]1C[C@@H](c2ccccc2)CN1)C(=O)NCc1ccc2c(N)nccc2c1.Cl.Cl [1089_B],"Ligand-pharmacophore element distance, pharmacophore element C2",,0
same,"Ligand-pharmacophore element distance, pharmacophore element C3",,0
same,"Ligand-pharmacophore element distance, pharmacophore element C4",,0
same,"Ligand-pharmacophore element distance, pharmacophore element C5",,0
same,"Ligand-pharmacophore element distance, pharmacophore element C6",,0
same,"Ligand-pharmacophore element distance, pharmacophore element C7",,0
same,"Ligand-pharmacophore element distance, pharmacophore element CA1",,0.99
same,"Ligand-pharmacophore element distance, pharmacophore element CA2",,0
same,"Ligand-pharmacophore element distance, pharmacophore element CA3",,0
same,"Ligand-pharmacophore element distance, pharmacophore element CA4",,0
same,"Ligand-pharmacophore element distance, pharmacophore element CA5",,1.16
same,"Ligand-pharmacophore element distance, pharmacophore element CA6",,0
same,"d(CA1,O1)",[1],5.68
same,"d(CA1,O2)",[1],5.17
same,"d(H4,O1)",[1],3.14
same,"d(H4,O2)",[1],3.69
same,"d(O1,O2)",[1],3.33
same,"d(CA5,N2)",[2],5.10
same,"d(O2,H3)",[2],5.91
same,"d(O2,N2)",[2],2.70
same,"a(CA1, O1, O2)",Table A6-1 pharmacophore angle,99.20
same,"a(O1, O2, H4)",Table A6-1 pharmacophore angle,122.31
same,"a(O1, O2, H3)",Table A6-2 pharmacophore angle,152.83
same,"a(O1, O2, N2)",Table A6-2 pharmacophore angle,141.07
same,"Pharmacophore torsion angle a(H4, O1, O2, H3)",[3],89.27
same,"Pharmacophore torsion angle a(H4, O1, O2, N2)",[3],−178.39
same,"Pharmacophore torsion angle a(O1, H4, O2, CA1)",[3],−94.63
same,"Pharmacophore torsion angle a(O1, O2, N2, CA5)",[4],133.38
same,Pharmacophore protein distance to MET_658 (first MET_658 column),,2.61
same,Pharmacophore protein distance to MET_658 (second MET_658 column),,3.31
same,Pharmacophore protein distance to GLY_528,,3.59
same,Pharmacophore protein distance to PHE_529,,2.81
same,Pharmacophore protein distance to PRO_608,,3.90
same,Pharmacophore protein distance to SER_611,,2.79
same,Pharmacophore protein distance to TRP_655,,3.57
C[C@H](NC(=O)[C@@H](CCc1ccccc1)NCc1ccc(N2CCOCC2)cc1)C(=O)NCc1ccc(C(=N)N)cc1 [compound 1149],H-bond distance to MASP-2 ASP 627 atom OD2,"Table A1 (H-Bonds), ASP 627 OD2",3.09
same,H-bond distance to MASP-2 CYS 660 atom SG,"Table A1 (H-Bonds), CYS 660 SG",3.16
same,H-bond distance to MASP-2 GLY 656 atom N,"Table A1 (H-Bonds), GLY 656 N",3.24
same,H-bond distance to MASP-2 SER 654 atom O,"Table A1 (H-Bonds), SER 654 O",2.7
same,H-bond distance to MASP-2 SER 657 atom O,"Table A1 (H-Bonds), SER 657 O",2.75
same,H-bond distance to MASP-2 SER 657 atom OG,"Table A1 (H-Bonds), SER 657 OG",3.19
same,"van der Waals contact distance, MASP-2 ASP 526 atom C",Table A2-1,3.29
same,"van der Waals contact distance, MASP-2 ASP 526 atom CA",Table A2-1,3.87
same,"van der Waals contact distance, MASP-2 HIS 483 atom CD2",Table A2-1,3.81
same,"van der Waals contact distance, MASP-2 GLY 528 atom N",Table A2-2,3.4
same,"van der Waals contact distance, MASP-2 PHE 529 atom CE1",Table A2-3,3.68
same,"van der Waals contact distance, SER 654 C to compound atom",Table A2-11,3.68
same,"Ligand-pharmacophore element distance, pharmacophore element C2",,0
same,"Ligand-pharmacophore element distance, pharmacophore element C3",,0
same,"Ligand-pharmacophore element distance, pharmacophore element C4",,3.8
same,"Ligand-pharmacophore element distance, pharmacophore element C5",,0
same,"Ligand-pharmacophore element distance, pharmacophore element C6",,0
same,"Ligand-pharmacophore element distance, pharmacophore element C7",,0
same,"Ligand-pharmacophore element distance, pharmacophore element CA1",,0.35
same,"Ligand-pharmacophore element distance, pharmacophore element CA2",,0
same,"Ligand-pharmacophore element distance, pharmacophore element CA3",,0
same,"Ligand-pharmacophore element distance, pharmacophore element CA4",,1.47
same,"Ligand-pharmacophore element distance, pharmacophore element CA5",,0
same,"Ligand-pharmacophore element distance, pharmacophore element CA6",,4.96
same,"d(CA1,N1)",[1],3.57
same,"d(CA1,O1)",[1],5.15
same,"d(CA1,O2)",[1],9.42
same,"d(CA6,O1)",[1],7.04
same,"d(CA6,O2)",[1],8.45
same,"d(H4,O1)",[1],5.59
same,"d(H4,O2)",[1],8.32
same,"d(O1,O2)",[1],8.70
same,"d(N2,C4)",[2],7.94
same,"d(O2,H3)",[2],5.29
same,"d(O2,N2)",[2],4.42
same,"a(CA1, O1, O2)",Table A6-1 pharmacophore angle,147.27
same,"a(O1, CA6, O2)",Table A6-1 pharmacophore angle,131.55
same,"a(O1, O2, H4)",Table A6-1 pharmacophore angle,105.44
same,"A(N1, CA1, O1) a)","Table A6-1 pharmacophore angle, all compounds with protonatable center N1 except Methyl-amino-pyridine",168.87
same,"a(O1, O2, H3)",Table A6-2 pharmacophore angle,54.88
same,"a(O1, O2, N2)",Table A6-2 pharmacophore angle,62.73
same,"a(O2, N2, C4)",Table A6-2 pharmacophore angle,154.82
same,"a(O2, N2, C4) 2",Table A6-2 pharmacophore angle,49.80
same,"Pharmacophore torsion angle a(CA6, O1, H4, O2)",[3],55.30
same,"Pharmacophore torsion angle a(H4, O1, O2, H3)",[3],105.58
same,"Pharmacophore torsion angle a(H4, O1, O2, N2)",[3],125.02
same,"Pharmacophore torsion angle a(N1, CA1, O2, H4)",[3],−109.82
same,"Pharmacophore torsion angle a(O1, H4, O2, CA1)",[3],−48.11
same,"Pharmacophore torsion angle a(O1, O2, N2, CA4)",[4],155.91
same,Pharmacophore protein distance to MET_658 (first MET_658 column),,2.55
same,Pharmacophore protein distance to MET_658 (second MET_658 column),,3.25
same,Pharmacophore protein distance to GLY_528,,3.92
same,Pharmacophore protein distance to PHE_529,,2.93
same,Pharmacophore protein distance to PRO_608,,4.39
same,Pharmacophore protein distance to SER_611,,2.96
same,Pharmacophore protein distance to TRP_655,,3.27

# Source: patent US12195427B2, “MASP-2 inhibitors and methods of use” (priority 2018, dated 2025)
